Data as given in US12007393B2, “Methods based on the detection of RAD51 foci in tumor cells” (Fundació Privada Institut D'Investigació Oncològica De Vall …, priority 2017, dated 2024).
Entries after “also recorded” stand apart in the source; their conditions may differ.

Tests used:
γH2AX foci = assay: γH2AX nuclear foci by immunofluorescence in FFPE PDX tumors; assay type: in vivo, mice
Experimental: (§1) The following primary antibodies were used for immunofluorescence: rabbit anti-RAD51 (Santa Cruz Biotechnology H-92, dilution 1:250), rabbit anti-RAD51 Ab from Cell Signalling Technologies (CST #8875, dilution 1:25 from a 83 μg/ml stock), rabbit anti-RAD51 Ab from Abcam (ab-133534, dilution 1:1000), mouse anti-Geminin (NovoCastra NCL-L, 1:100 in PDX samples, 1:60 in patient samples), rabbit anti-Geminin (ProteinTech 10802-1-AP, 1:400), mouse anti-BRCA1 (Santa Cruz Biotechnology D-9, 1:50 for C-term; or Abcam MS110, 1:200 for N-term), and mouse anti-γH2AX (Millipore JBW301, 1:200). The secondary antibodies used were: goat anti-rabbit Alexa fluor 568 (Invitrogen; 1:500), goat anti-mouse Alexa fluor 488 (Invitrogen; 1:500), goat anti-mouse Alexa fluor 568 (Invitrogen; 1:500) and goat anti-rabbit Alexa fluor 488 (Invitrogen; 1:500).
(§2) Thin tissue sections were deparaffinized with xylene and hydrated with decreasing concentrations of ethanol. […]
(§3) RAD51 was quantified by scoring: a) the percentage of tumor cells with RAD51 nuclear foci, b) the percentage of γH2AX foci positive cells with RAD51 foci, or c) the percentage of geminin positive cells with RAD51 foci, as indicated in the Figures. […] Optimally, one-hundred geminin or γH2AX foci-positive cells from at least 3 different and representative areas of each sample were analyzed. […]

RAD51 foci = assay: RAD51 nuclear foci by immunofluorescence in FFPE PDX tumors; assay type: in vivo, mice
Experimental: as §1, §2, §3

[1] = test system: patient-derived tumor xenografts (PDXs) of breast, ovarian and pancreatic cancer; assay: In vivo PDX sensitivity to PARPi (antitumor activity by RECIST on % tumor volume change); design: species or system mice
Experimental: Fresh tumor samples from patients with breast or high-grade serous ovarian cancer were prospectively collected for implantation into nude mice under protocols approved by Vall Hebron's institutional review board (IRB), Institut Curie or Institut Paoli-Calmettes. Experiments were conducted following the European Union's animal care directive (2010/63/EU) and were approved by the Ethical Committee of Animal Experimentation of the Vall d'Hebron Research Institute (Barcelona, Spain) or by the Ethical Committee of Animal Experimentation CEEA-51 (Evry, France). Fresh primary or metastatic human tumors were obtained from patients at time of surgery or biopsy and immediately implanted into the mammary fat pad (surgery samples) or the lower flank (metastatic samples) of 6-week-old female athymic HsdCpb:NMRI-Foxnlnu mice (Harlan Laboratories). Animals were continuously supplemented with 1 μM 17b-estradiol (Sigma-Aldrich) in their drinking water. Upon growth of the engrafted tumors, the model was perpetuated by serial transplantation onto the lower flank. In each passage, flash-frozen and formalin-fixed paraffin embedded (FFPE) samples were taken for genotyping and histological studies.
To evaluate the sensitivity to PARP inhibition, tumor-bearing mice were equally distributed into treatment groups of 5 to 10 mice with tumors ranging 70 to 300 mm3. Olaparib 50 mg/kg or 100 mg/kg, Niraparib 75 mg/kg or 50 mg/kg, or Veliparib 100 mg/kg were administered per gavage (p.o.) daily (in 10% v/v DMSO/10% w/v Kleptose [HP-β-CD]). Tumor growth was measured with caliper bi-weekly from first day of treatment to day 21 and every 7-10 days in the acquired resistance setting. To generate PDX models with acquired resistance to PARPi, olaparib treatment was maintained for up to 150 days in olaparib-sensitive tumors until individual tumors regrew. In all experiments, mouse weight was recorded twice weekly. The tumor volume was calculated as V=4π/3/Lx12, “L” being the largest diameter and “1” the smallest. Mice were euthanized when tumors reached 1500 mm3 or in case of severe weight loss, in accordance with institutional guidelines. The antitumor activity was determined by comparing tumor volume at 21 days to its baseline: % tumor volume change=(V21 days−Vinitial)/Vinitial×100. For olaparib-sensitive PDX, the best response was defined as the minimum value of % tumor volume change sustained for at least 10 days. To classify the antitumor response, the Response Evaluation Criteria In Solid Tumors (RECIST) criteria on the % tumor volume change was followed: CR (complete response), best response<−95%; PR (partial response), −95<best response<−30%; SD (stable disease), −30%<best response<+20%, PD (progressive disease), best response>+20%.

## O=C(c1cc(Cc2n[nH]c(=O)c3ccccc23)ccc1F)N1CCN(C(=O)C2CC2)CC1 [olaparib]
γH2AX foci; treated vs vehicle PDX tumors, sensitive and resistant groups (FIG. 2A)
  γH2AX foci formation, percentage of tumor cells with γH2AX nuclear foci: increased; also recorded: induces
γH2AX foci; treated vs vehicle, both sensitive and resistant tumors (FIG. 2B)
  γH2AX foci formation in geminin-positive cells: increased; also recorded: significantly increases
RAD51 foci; olaparib-treated samples from resistant PDX models (FIG. 2C)
  percentage of RAD51 foci/geminin-positive cells (RAD51 score): significantly increased
RAD51 foci; treated vs vehicle, olaparib-resistant PDX models (FIG. 2A)
  RAD51 foci formation, percentage of tumor cells with RAD51 nuclear foci: increased; also recorded: only significantly induced in the olaparib resistant PDX models
[1]; of 44 PDX models (39 BrC, 3 HGSOC/OvC, 2 PaC), p.o. daily, CR/PR/SD
  number of PDX models in which treatment exhibited antitumor activity as assessed by RECIST: ten
[1]; of 44 PDX models, CR: best response <-95% tumor volume change
  number of PDX models with complete response (CR): 6
[1]; of 44 PDX models, PD: best response >+20%
  number of PDX models with progressive disease (PD), olaparib-resistant: 34
[1]; of 44 PDX models, PR: -95<best response<-30%
  number of PDX models with partial response (PR): 2
